Measured values: patent US10104891B2 (priority 2014, dated 2018)

Legend:
Format in all cases: in vivo
[1] = test system: Pseudoperonospora cubensis; assay: Test 2: control effect against cucumber downy mildew; conditions: control value vs untreated section; for pest or weed control at 4 µg/mL: Pseudoperonospora cubensis, 120 h
Outline: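 Protective test: zoospores (1.0×10^4 units/ml) misted one day after applying a 4 ppm suspension (wettable powder diluted in 1/5000 Tween20) to 2-leaf cucumber, Sagami hanjiro. After 16 hr at 22° C humid incubation, leaf lesion area read at day 5, expressed as control value versus untreated leaves.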

Plasmopara viticola = assay: Test 3: control effect against grape downy mildew; conditions: control value vs untreated section; for pest or weed control at 4 µg/mL: Plasmopara viticola, 120 h
Outline: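 Leaf lesion area, scored 5 days after inoculation and compared with untreated plants, gives the control value. Inoculation used P. viticola zoospores (1.0×10^4 units/ml) with a 16 hr moist incubation at 22° C. It followed by one day a spray of 4 ppm compound (wettable powder in Tween20) onto Neomuscat seedlings.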

Phytophthora infestans = assay: whole plant or invertebrate; conditions: for control value (Test 1): tomato late blight, control value vs untreated section; for pest or weed control at 4 µg/mL: Phytophthora infestans, in Solanum lycopersicum, 96 h, read-out: control value (Test 1)

Row | Structure (SMILES) | control value (Test 2) [1] | control value (Test 3) (Plasmopara viticola) | control value (Test 1) (Phytophthora infestans) | pest or weed control at 4 µg/mL [1] | pest or weed control at 4 µg/mL (Plasmopara viticola) | pest or weed control at 4 µg/mL (Phytophthora infestans)
1 | O=C(Cc1cc(Cl)ccc1Cl)N1CCC(c2nc(C3OCc4ccc([N+](=O)[O-])cc4CO3)cs2)CC1 (stereo not drawn) [Compound 2-21] | 100 | 100 | 50 | – | – | –
2 | COc1ccc(Br)c2c1COC(c1csc(C3CCN(C(=O)Cc4cc(C)ccc4C)CC3)n1)OC2 (stereo not drawn) [Compound 2-24] | 100 | 100 | 100 | – | – | –
3 | COc1ccc(Br)c2c1COC(c1csc(C3CCN(C(=O)Cc4cc(Cl)ccc4Cl)CC3)n1)OC2 (stereo not drawn) [Compound 2-25] | 100 | 100 | 40 | – | – | –
4 | COc1ccc(OS(C)(=O)=O)c2c1COC(c1csc(C3CCN(C(=O)Cc4cc(Cl)ccc4Cl)CC3)n1)OC2 (stereo not drawn) [Compound 2-26] | 100 | 100 | 100 | – | – | –
5 | Cc1ccc(C)c(CC(=O)N2CCC(c3nc(C4OCc5c(F)c(F)c(F)c(F)c5CO4)cs3)CC2)c1 [Compound 2-27] | 100 | 100 | 100 | – | – | –
6 | COc1ccc(OS(C)(=O)=O)c2c1COC(c1csc(C3CCN(C(=O)Cc4cc(C)ccc4C)CC3)n1)OC2 (stereo not drawn) [Compound 2-28] | 100 | 100 | 90 | – | – | –
7 | CS(=O)(=O)Oc1cccc2c1COC(c1csc(C3CCN(C(=O)Cc4cc(C(F)(F)F)ccc4C(F)(F)F)CC3)n1)OC2 (stereo not drawn) [Compound 2-30, 4-[4-(6-methylsulfonyloxy-1,5-dihydro-3H-2,4-benzodioxepin-3-yl)-2-thiazolyl]-1-[2-[2,5-bis(trifluoromethyl)phenyl]acetyl]piperidine] | – | – | – | 100% | 100% | 30%
8 | Cc1ccc(C)c(CC(=O)N2CCC(c3nc(C4OCc5c(OS(C)(=O)=O)cc(C)c(C)c5CO4)cs3)CC2)c1 (stereo not drawn) [Compound 2-31, 4-[4-(6,7-dimethyl-9-methylsulfonyloxy-1,5-dihydro-3H-2,4-benzodioxepin-3-yl)-2-thiazolyl]-1-[2-(2,5-dimethylphenyl)acetyl]piperidine] | – | – | – | 100% | 100% | 0%
9 | Cc1cc(OS(C)(=O)=O)c2c(c1C)COC(c1csc(C3CCN(C(=O)Cc4cc(Cl)ccc4Cl)CC3)n1)OC2 (stereo not drawn) [Compound 2-32] | 100 | 100 | 100 | – | – | –
10 | Cc1ccc(C)c(CC(=O)N2CCC(c3nc(C4OCc5c(Br)ccc(OS(C)(=O)=O)c5CO4)cs3)CC2)c1 (stereo not drawn) [Compound 2-33] | 100 | 100 | 20 | – | – | –
11 | CS(=O)(=O)Oc1ccc([N+](=O)[O-])c2c1COC(c1csc(C3CCN(C(=O)Cc4cc(Cl)ccc4Cl)CC3)n1)OC2 (stereo not drawn) [Compound 2-34] | 100 | 100 | 90 | – | – | –
12 | CS(=O)(=O)Oc1ccc(Br)c2c1COC(c1csc(C3CCN(C(=O)Cc4cc(Cl)ccc4Cl)CC3)n1)OC2 (stereo not drawn) [Compound 2-35] | 100 | 100 | 100 | – | – | –
13 | O=C(Cc1cc(Cl)ccc1Cl)N1CCC(c2nc(C3OCc4cccc([N+](=O)[O-])c4CO3)cs2)CC1 (stereo not drawn) [Compound 2-36] | 100 | 100 | 100 | – | – | –
14 | Cc1ccc(C)c(CC(=O)N2CCC(c3nc(C4OCc5c(OS(C)(=O)=O)ccc([N+](=O)[O-])c5CO4)cs3)CC2)c1 (stereo not drawn) [Compound 2-37] | 100 | 100 | 90 | – | – | –
15 | Cc1ccc(C)c(CC(=O)N2CCC(c3nc(C4OCc5c(Cl)ccc(OS(C)(=O)=O)c5CO4)cs3)CC2)c1 (stereo not drawn) [Compound 2-38] | 100 | 100 | 100 | – | – | –
16 | Cc1ccc(C)c(CC(=O)N2CCC(c3nc(C4OCc5c(I)ccc(OS(C)(=O)=O)c5CO4)cs3)CC2)c1 (stereo not drawn) [Compound 2-40] | 100 | 100 | 70 | – | – | –

Row | Structure (SMILES) | control value (Test 2) [1] | control value (Test 3) (Plasmopara viticola) | control value (Test 1) (Phytophthora infestans) | pest or weed control at 4 µg/mL [1] | pest or weed control at 4 µg/mL (Plasmopara viticola) | pest or weed control at 4 µg/mL (Phytophthora infestans)
17 | CS(=O)(=O)Oc1ccc(Cl)c2c1COC(c1csc(C3CCN(C(=O)Cc4cc(Cl)ccc4Cl)CC3)n1)OC2 (stereo not drawn) [Compound 2-41] | 100 | 100 | 100 | – | – | –
18 | Cc1ccc(C)c(CC(=O)N2CCC(c3nc(C4OCc5ccc(F)c(OS(C)(=O)=O)c5CO4)cs3)CC2)c1 (stereo not drawn) [Compound 2-42] | 100 | 100 | 90 | – | – | –
19 | CS(=O)(=O)Oc1c(F)ccc2c1COC(c1csc(C3CCN(C(=O)Cc4cc(Cl)ccc4Cl)CC3)n1)OC2 (stereo not drawn) [Compound 2-43, 4-[4-(7-fluoro-6-methylsulfonyloxy-1,5-dihydro-3H-2,4-benzodioxepin-3-yl)-2-thiazolyl]-1-[2-(2,5-dichlorophenyl)acetyl]piperidine] | – | – | – | 100% | 100% | 100%
20 | CS(=O)(=O)Oc1ccc(I)c2c1COC(c1csc(C3CCN(C(=O)Cc4cc(Cl)ccc4Cl)CC3)n1)OC2 (stereo not drawn) [Compound 2-44, 4-[4-(6-iodo-9-methylsulfonyloxy-1,5-dihydro-3H-2,4-benzodioxepin-3-yl)-2-thiazolyl]-1-[2-(2,5-dichlorophenyl)acetyl]piperidine] | – | – | – | 100% | 100% | 90%
21 | COc1ccc(C)c2c1COC(c1csc(C3CCN(C(=O)Cc4cc(Cl)ccc4Cl)CC3)n1)OC2 (stereo not drawn) [Compound 2-46] | 100 | 100 | 100 | – | – | –
22 | Cc1ccc(C)c(CC(=O)N2CCC(c3nc(C4OCc5cccc(OC(F)F)c5CO4)cs3)CC2)c1 (stereo not drawn) [Compound 2-47] | 100 | 100 | 100 | – | – | –
23 | CS(=O)(=O)Oc1ccc2c(c1)COC(c1csc(C3CCN(C(=O)Cc4cc(Cl)ccc4Cl)CC3)n1)OC2 (stereo not drawn) [Compound 2-49] | 0 | 100 | 100 | – | – | –
24 | COc1cccc2c1COC(c1csc(C3CCN(C(=O)Cc4cc(C)ccc4C)CC3)n1)OC2 (stereo not drawn) [Compound 2-50] | 100 | 100 | 100 | – | – | –
25 | COc1cccc2c1COC(c1csc(C3CCN(C(=O)Cc4cc(Cl)ccc4Cl)CC3)n1)OC2 (stereo not drawn) [Compound 2-51] | 100 | 100 | 100 | – | – | –
26 | Cc1ccc(C)c(CC(=O)N2CCC(c3nc(C4OCc5c(OS(C)(=O)=O)ccc(OS(C)(=O)=O)c5CO4)cs3)CC2)c1 [Compound 2-53] | 100 | 100 | 100 | – | – | –
27 | Cc1ccc(C)c(CC(=O)N2CCN(c3nc(C4OCc5cccc(OS(C)(=O)=O)c5CO4)cs3)CC2)c1 (stereo not drawn) [Compound 2-54] | 90 | 100 | 90 | – | – | –
28 | CC(C)=NOCC(=O)N1CCC(c2nc(C3OCc4cccc(OS(C)(=O)=O)c4CO3)cs2)CC1 (stereo not drawn) [Compound 3-1, 4-[4-(6-methylsulfonyloxy-1,5-dihydro-3H-2,4-benzodioxepin-3-yl)-2-thiazolyl]-1-[2-[(propane-2-ylideneamino)oxy]acetyl]piperidine] | – | – | – | 100% | 100% | 100%
29 | O=C(CON=CC(F)(F)F)N1CCC(c2nc(C3OCc4cccc(F)c4CO3)cs2)CC1 (stereo not drawn) [Compound 3-2] | 100 | 100 | 100 | – | – | –
30 | CS(=O)(=O)Oc1ccc(F)c2c1COC(c1csc(C3CCN(C(=O)CON=CC(F)(F)F)CC3)n1)OC2 (stereo not drawn) [Compound 3-3] | 100 | 100 | 100 | – | – | –
31 | O=C(CON=CC(F)(F)F)N1CCC(c2nc(C3OCc4c(F)ccc(F)c4CO3)cs2)CC1 [Compound 3-4] | 100 | 100 | 100 | – | – | –
32 | COc1ccc(OS(C)(=O)=O)c2c1COC(c1csc(C3CCN(C(=O)CON=CC(F)(F)F)CC3)n1)OC2 (stereo not drawn) [Compound 3-5] | 100 | 100 | 100 | – | – | –
